Data on 23 compounds can be found in PubChem BioAssay (NCI).

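Growth conditions: 96-well plates. Treatment: test compound, 48 hours, 5 concentrations. Analysis: linear interpolation between bracketing concentrations; unreached endpoints set to highest concentration. At the GI50, growth is halved. TGI is the concentration that stops growth completely.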

Some test systems named below: SK-MEL-5 melanoma; SNB-75 CNS; HOP-92 NSCLC; HCT-116 colon; K-562 leukemia; HL-60(TB) leukemia; RPMI-8226 leukemia; SK-MEL-2 melanoma; MDA-MB-435; M14 melanoma.
Holding throughout (test): DTP human tumour cell line panel, 48 h

Regarding `CCCCCCc1cn([C@H]2C[C@H](O)[C@@H](CO)O2)c(=O)[nH]c1=O`, the TGI in the test with SK-MEL-5 melanoma, with SNB-75 CNS, in the test with HOP-92 NSCLC, in the test with HCT-116 colon, with K-562 leukemia and in the test on HL-60(TB) leukemia was > 100 µM each time. In addition, the TGI in the test with RPMI-8226 leukemia and with SK-MEL-2 melanoma was > 100 µM in each case.
For `COc1ccc(NS(=O)c2cccc(C)c2)cc1` (stereo not given), the TGI with MDA-MB-435 was > 100 µM; with SK-MEL-5 melanoma, 75 µM; with SNB-75 CNS, > 100 µM; in the test on M14 melanoma, > 100 µM; in the test with HCT-116 colon, > 100 µM; in the test on K-562 leukemia it was > 100 µM. In addition, the TGI in the test with HL-60(TB) leukemia and with RPMI-8226 leukemia was > 100 µM throughout.
Turning to `CCOC(=O)c1cn(C)nc1N/C(C)=C\C(=O)c1ccccc1`, the TGI with MDA-MB-435, with SK-MEL-5 melanoma, in the test on HOP-92 NSCLC, in the test with M14 melanoma, with K-562 leukemia and in the test on HL-60(TB) leukemia was > 100 µM throughout.
For `O=C(NCc1ccccc1)c1c(O)c2ccccc2[nH]c1=O`, the TGI with MDA-MB-435, in the test on SK-MEL-5 melanoma, in the test on SNB-75 CNS, with HOP-92 NSCLC, in the test on HCT-116 colon and with K-562 leukemia was > 100 µM each time. Further, the TGI in the test with HL-60(TB) leukemia and with RPMI-8226 leukemia was > 100 µM in each case.
For `O=C(NC/C=C/Br)NC1CCNc2ccccc21` (stereo not given), the TGI in the test with MDA-MB-435 is 88.9 µM; with SK-MEL-5 melanoma, 37.7 µM; in the test with SNB-75 CNS, > 100 µM; in the test on M14 melanoma, 34.5 µM; with HCT-116 colon it was > 100 µM; in the test on K-562 leukemia, > 100 µM. In addition, the TGI is > 100 µM with HL-60(TB) leukemia, 58.7 µM in the test with RPMI-8226 leukemia and 86.8 µM in the test with SK-MEL-2 melanoma.
For the compound `O=S(=O)(/N=C1/SC(=Nc2ccccc2)N(c2ccccc2)/C1=N/S(=O)(=O)c1ccccc1)c1ccccc1`, the TGI in the test with SK-MEL-5 melanoma turned out to be 31.3 µM; in the test on SNB-75 CNS it was 62.1 µM; in the test with HOP-92 NSCLC it was 62.9 µM; with M14 melanoma, 62.8 µM; in the test on HCT-116 colon it was 38.4 µM; in the test on K-562 leukemia, 66.6 µM. Besides, the TGI in the test with HL-60(TB) leukemia was determined as 45.1 µM; in the test on RPMI-8226 leukemia it was 44.6 µM; with SK-MEL-2 melanoma, 45 µM.
Regarding `COc1ccccc1N1C(=O)/C(=C\c2cccc(Oc3ccccc3)c2)S(=O)(=O)C1c1ccccc1` (stereo not given), the TGI is > 100 µM in the test on MDA-MB-435; 53.7 µM in the test with SK-MEL-5 melanoma; > 100 µM with HOP-92 NSCLC; > 100 µM in the test with M14 melanoma; > 100 µM in the test on HCT-116 colon; > 100 µM in the test with K-562 leukemia. The TGI in the test on SK-MEL-2 melanoma worked out at 70.5 µM.
Consider `C=C1CC(OC)(C(O)C(=O)N[C@H]2OCO[C@H]3C2O[C@H](C[C@H](O)COC)C(C)(C)C3OC)O[C@H](C)[C@@H]1C` (stereo not given in full), for which the TGI with SK-MEL-5 melanoma, in the test on SNB-75 CNS, with HCT-116 colon, with K-562 leukemia and with RPMI-8226 leukemia was > 0.00772 µM each time.
For `CCCC(=O)OC1CC(n2cc(F)c(=O)[nH]c2=O)OC1CO` (stereo not given), the TGI was > 10 µM in the test on MDA-MB-435; 1.84 µM in the test on SK-MEL-5 melanoma; > 8.14 µM with SNB-75 CNS; > 5.96 µM in the test on M14 melanoma; > 10 µM in the test with HCT-116 colon; > 10 µM with K-562 leukemia. Further, the TGI in the test with HL-60(TB) leukemia, in the test on RPMI-8226 leukemia and in the test on SK-MEL-2 melanoma was > 10 µM in each case.
As for `CN(C)C=Nc1nncc2n[nH]nc12`, the TGI in the test with MDA-MB-435, in the test with SK-MEL-5 melanoma, with SNB-75 CNS, in the test on M14 melanoma, in the test on HCT-116 colon and in the test on K-562 leukemia was > 100 µM each time. Besides, the TGI with HL-60(TB) leukemia, with RPMI-8226 leukemia and in the test on SK-MEL-2 melanoma was > 100 µM each time.
Take `COC(=O)[C@@H]1O[C@]12[C@@H](CO[Si](C)(C)C(C)(C)C)O[C@@H](n1cc(C)c(=O)[nH]c1=O)[C@@H]2O[Si](C)(C)C(C)(C)C`: the TGI was 59.2 µM with MDA-MB-435; 38.5 µM in the test on SK-MEL-5 melanoma; > 100 µM with SNB-75 CNS; 35.9 µM in the test with M14 melanoma; 29.9 µM in the test on HCT-116 colon; 40.2 µM in the test on K-562 leukemia. Also, the TGI with HL-60(TB) leukemia was 5.47 µM; with SK-MEL-2 melanoma it was 30.1 µM.
Take `C=C1C(=O)O[C@H]2C/C(C=O)=C\[C@H]3O[C@H]3/C(COC(=O)C(C)C)=C/CC12` (stereo not given in full): the TGI was 18.9 µM with MDA-MB-435; 22.2 µM in the test with SK-MEL-5 melanoma; 10.1 µM in the test on HCT-116 colon; 10.4 µM with K-562 leukemia; 5.54 µM with HL-60(TB) leukemia; 7.61 µM in the test with RPMI-8226 leukemia.
On to `O=c1c(-c2ccc(O)cc2)coc2cc(O)cc(O)c12`, for which the TGI in the test on MDA-MB-435, with SK-MEL-5 melanoma, in the test with HOP-92 NSCLC, in the test on M14 melanoma, with K-562 leukemia and in the test with HL-60(TB) leukemia was > 100 µM throughout. In addition, in the test on RPMI-8226 leukemia, the TGI was > 100 µM.
Take `CCOC(=O)c1cc(-c2ccn(C(C)=O)c2)c(-c2cc(C)co2)[nH]1`: the TGI in the test on MDA-MB-435, with SK-MEL-5 melanoma, in the test with SNB-75 CNS, with M14 melanoma, in the test with HCT-116 colon and in the test on K-562 leukemia was > 100 µM each time. For the same compound, the TGI in the test on HL-60(TB) leukemia, in the test with RPMI-8226 leukemia and in the test on SK-MEL-2 melanoma was > 100 µM throughout.
In the case of `CC1(C)Oc2ccc3c(=O)c4ccccc4oc3c2C1C(=O)O` (stereo not given), the TGI with MDA-MB-435, with SK-MEL-5 melanoma, in the test with M14 melanoma, in the test with HCT-116 colon, in the test with K-562 leukemia and in the test with SK-MEL-2 melanoma was > 100 µM in each case.
`C/C(=C\CNc1nc(Cl)nc2nc[nH]c12)CO`: the TGI in the test with MDA-MB-435, with SK-MEL-5 melanoma, with SNB-75 CNS, with HOP-92 NSCLC, with M14 melanoma and with HCT-116 colon was > 100 µM in each case. Further, the TGI in the test with K-562 leukemia, in the test with HL-60(TB) leukemia and with RPMI-8226 leukemia was > 100 µM each time.
`O=C(C=P(c1ccccc1)(c1ccccc1)c1ccccc1)c1ccc(-c2ccc(F)cc2F)cc1`: the TGI worked out at 5.79 µM with MDA-MB-435; 3.55 µM in the test on SK-MEL-5 melanoma; 7.24 µM in the test with HOP-92 NSCLC; 5.76 µM with M14 melanoma; 8.81 µM in the test on HCT-116 colon; 5.31 µM in the test with K-562 leukemia. Also, the TGI came out at 5.13 µM in the test on HL-60(TB) leukemia and 4.43 µM in the test on RPMI-8226 leukemia.
Regarding `CC(=O)[C@H]1CCC2[C@@H]3CC=C4C(O)C(OS(=O)(=O)O)CC[C@]4(C)C3CC[C@@]21C` (stereo not given in full), the TGI with SK-MEL-5 melanoma was > 100 µM; in the test with SNB-75 CNS, > 100 µM; in the test on HOP-92 NSCLC, > 100 µM; in the test on HCT-116 colon it was > 100 µM; in the test with K-562 leukemia, > 100 µM; with HL-60(TB) leukemia it was > 31.6 µM. In addition, the TGI in the test with RPMI-8226 leukemia and with SK-MEL-2 melanoma was > 100 µM each time.
For `NC1CCCCC1N.O=S(=O)([O-])CCCN1CCN(CCO)CC1.O=S(=O)([O-])CCCN1CCN(CCO)CC1.[Pt+4]`, the GI50 with SK-MEL-5 melanoma is 2.57 µM; in the test on SNB-75 CNS, > 39.9 µM; with HOP-92 NSCLC it was 19 µM; in the test with HCT-116 colon it was 2 µM; with K-562 leukemia, 4.81 µM; with HL-60(TB) leukemia, 0.132 µM. Besides, the GI50 was 0.423 µM in the test with RPMI-8226 leukemia and 13.1 µM in the test on SK-MEL-2 melanoma. Also, the TGI in the test on SK-MEL-5 melanoma was 17.2 µM; in the test on SNB-75 CNS, > 100 µM; in the test on HOP-92 NSCLC, 59.3 µM; in the test with HCT-116 colon it was > 100 µM; with K-562 leukemia, 44.8 µM; in the test with HL-60(TB) leukemia, 11.6 µM. In addition, the TGI amounted to 20.5 µM in the test on RPMI-8226 leukemia and 23.4 µM in the test with SK-MEL-2 melanoma.
In the case of `COc1ccc(N2C(=O)/C(=C/c3ccc(N(CCC#N)CCC#N)cc3)N=C2c2ccccc2)c(OC)c1`, the TGI with MDA-MB-435 is > 100 µM; in the test with SK-MEL-5 melanoma, > 100 µM; with SNB-75 CNS, > 100 µM; in the test on HOP-92 NSCLC it was 68.9 µM; with M14 melanoma, > 100 µM; in the test with HCT-116 colon, > 100 µM. Also, the figures for the TGI with K-562 leukemia, with HL-60(TB) leukemia and in the test with RPMI-8226 leukemia were 87 µM, > 100 µM and > 100 µM, respectively.
Consider `CSC1NNC2(C(=O)N1)c1ccccc1-c1ccccc12` (stereo not given), for which the TGI in the test with MDA-MB-435, in the test on SK-MEL-5 melanoma, in the test on SNB-75 CNS, with HOP-92 NSCLC, in the test with M14 melanoma and with HCT-116 colon was > 10 µM each time. Also, the TGI with K-562 leukemia, in the test on HL-60(TB) leukemia and in the test on RPMI-8226 leukemia was > 10 µM throughout.
On to `CC(=O)Nc1ccc(/C=C(\NC(=O)c2ccccc2)C(=O)NNS(=O)(=O)c2ccc(C)cc2)cc1`, for which the TGI in the test with SK-MEL-5 melanoma, with SNB-75 CNS, in the test with HOP-92 NSCLC, in the test with M14 melanoma, in the test with HCT-116 colon and in the test with K-562 leukemia was > 100 µM in each case. In addition, the TGI in the test on HL-60(TB) leukemia is > 100 µM; in the test with RPMI-8226 leukemia it was 49 µM; with SK-MEL-2 melanoma, > 100 µM.
Take `O=C(Nc1nc(C23CC4CC(CC(C4)C2)C3)cs1)c1cc2cc([N+](=O)[O-])ccc2oc1=O`: the TGI with MDA-MB-435 was > 100 µM; with SK-MEL-5 melanoma it was 96.9 µM; in the test with SNB-75 CNS it was 74.9 µM; in the test on HOP-92 NSCLC, > 100 µM; in the test on HCT-116 colon it was > 100 µM; with K-562 leukemia it was > 100 µM. Further, the TGI in the test on HL-60(TB) leukemia and in the test on RPMI-8226 leukemia was > 100 µM in each case.

By TGI is commonly meant the concentration at which net growth stops. A high value points to lower sensitivity of the cells. In general, GI50 refers to the concentration that inhibits growth by half.
